Test results as given in US12642862B2, “Anti-CD79B antibody-drug conjugate, and preparation method therefor and pharmaceutical use thereof” (TUOJIE BIOTECH (SHANGHAI) CO., LTD., priority 2020, dated 2026).

T1: human CD79B (Homo sapiens, UniProt P40259)
T1 sequence (P40259 29-159 limits assumed): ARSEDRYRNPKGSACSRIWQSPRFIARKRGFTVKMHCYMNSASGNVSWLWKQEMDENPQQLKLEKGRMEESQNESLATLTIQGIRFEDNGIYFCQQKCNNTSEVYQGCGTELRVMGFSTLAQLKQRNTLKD

T2: CD79B protein on the surface of DoHH2 cells (Homo sapiens, UniProt P40259)
T2 construct: endogenous in cells; host or cells: DoHH2 (DOHH-2) cells
T2 sequence (P40259 29-229): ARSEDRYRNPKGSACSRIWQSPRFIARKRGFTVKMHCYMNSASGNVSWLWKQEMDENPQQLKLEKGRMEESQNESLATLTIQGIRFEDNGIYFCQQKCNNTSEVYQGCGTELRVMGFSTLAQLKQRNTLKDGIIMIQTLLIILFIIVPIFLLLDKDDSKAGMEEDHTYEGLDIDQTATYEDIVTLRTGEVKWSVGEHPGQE
T2 sequence (P11912 33-226 partner): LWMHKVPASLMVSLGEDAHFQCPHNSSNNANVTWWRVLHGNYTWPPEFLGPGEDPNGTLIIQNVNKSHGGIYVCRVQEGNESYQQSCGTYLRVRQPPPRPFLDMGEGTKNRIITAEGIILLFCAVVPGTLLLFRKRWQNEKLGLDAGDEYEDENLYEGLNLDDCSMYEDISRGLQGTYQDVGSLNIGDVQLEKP


Tests used:
A549 = assay: Test Example 2 in vitro cytotoxic activity (CTG), A549; format: cell-based; conditions: A549, 5 days; for IC50: Homo sapiens, 120 h
Description: (§1) In this experiment, the ATP content was determined using CTG to reflect the survival condition of the tumor cells.
(§2) Each of A549, SKBR3 and MDA-MB-468 was digested with pancreatin, resuspended in a culture medium and counted, and the cell density was adjusted to 2.2×10^4 cells/mL. 135 μL of cell suspension was added to each well in columns 2 to 11 of a 96-well plate, and column 12 was set as blank control. The cells were cultured in an incubator at 37° C. with 5% CO2 for 24 h.
(§3) a) Stock solution preparation: the drug was dissolved in DMSO to obtain a stock solution at a concentration of 5 mM.
(§4) b) Plate 1: stock solution in column 1 was initially subjected to a 40-fold dilution, and 3-fold gradient dilutions were performed sequentially in columns 2 to 11. Column 12 was filled with DMSO.
(§5) c) Plate 2: 196 μL of the corresponding culture medium was added to columns 2 to 11, and 4 μL of culture medium was pipetted from columns 3 to 12 of the plate 1 to columns 2 to 11 of the plate 2. The culture medium was mixed well.
(§6) 15 μL of culture medium was pipetted from the plate 2 and added to the cells. The cells were continuously cultured in an incubator at 37° C. with 5% C02 for 5 days.
(§7) 2.4. CTG assay: the plate was taken out and allowed to equilibrate to room temperature. 75 μL of CTG was added to each well and reacted at room temperature for 10 min away from the light. The luminescence value was read using a microplate reader and IC50 was calculated. 2.5. Data Results

SKBR3 = assay: Test Example 2 in vitro cytotoxic activity (CTG), SKBR3; format: cell-based; conditions: SKBR3, 5 days; for IC50: Homo sapiens, SK-BR-3, 120 h
Description: as §1, §2, §3, §4, §5, §6, §7

MDA-MB-468 = assay: Test Example 2 in vitro cytotoxic activity (CTG), MDA-MB-468; format: cell-based; conditions: MDA-MB-468, 5 days; for IC50: Homo sapiens, 120 h
Description: as §1, §2, §3, §4, §5, §6, §7

[1] = test system: DOHH-2 cells highly expressing human CD79B protein; assay: Endocytosis of anti-CD79B antibodies in DOHH-2 cells; format: cell-based
Description: In order to determine whether the CD79B antibodies of the present disclosure can be endocytosed into cells with human CD79B after binding to human CD79B, a cell endocytosis experiment was performed with DOHH-2 cells (DSMZ, ACC 47) highly expressing human CD79B protein to assess the endocytosis ability of the antibodies.
The cells were collected by low temperature centrifugation at 4° C. for 5 min at 1000 rpm during the experiment. The cells were resuspended in 10-15 mL of FACS buffer pre-cooled on ice. The FACS buffer was composed of phosphate buffered saline (PBS), pH 7.4, with 2% fetal bovine serum (FBS). Throughout the experiment, FACS buffer was pre-cooled on ice. The cells were counted and centrifuged, and added to a 96-well plate at 300,000 cells/well. After centrifugation, the supernatant was discarded, and 12.5 μg/mL Fc blocking solution (BD, Cat No.: 564220) was added at 100 μL/well. Blocking was performed at room temperature for 10 min. Then, 20 μg/mL test CD79B antibody was added to the corresponding wells, and the plate was incubated at 4° C. for 1 h away from the light. The plate was washed twice with a pre-cooled PBS buffer to remove unbound antibodies. A complete cell culture medium (RPMI 1640 medium with 10% fetal bovine serum) was added, and the plate was incubated at 37° C. with 5% CO2 for 0 h, 1 h, 2 h and 4 h. After centrifugation, the supernatant was discarded, 2% PFA buffer solution was added at 100 μL/well to resuspend the cells, and the plate was left to stand for 10 min. Then, the plate was washed 3 times with an FACS buffer, and 100 μL of secondary antibody solution (fluorescent labeled goat anti-human secondary antibody: diluted in a 1:250 ratio, 2 μg/mL, Biolegend, Cat #409304) was added. The plate was incubated at 4° C. for half an hour away from the light. A pre-cooled PBS buffer was added, and the supernatant was discarded after centrifugation at 4° C., which were repeated three times. The cells were resuspended in an FACS buffer at 200 μL/well and detected using a flow cytometer (BD FACS Calibur).

human CD79B [2] = target: T1, human CD79B; assay: ELISA of purified anti-human CD79B mouse monoclonal antibodies; format: binding; design: the extracellular region (ECD) of human CD79B comprises 159 amino acids (Met1-Asp159); made in house; host or cells: 293F cells; conditions: purified antibodies diluted 1:10 from 100 nM; FIG. 8
Description: (§8) 2) Assay on anti-human CD79B mouse monoclonal antibodies by ELISA A 96-well plate was coated with 1 μg/mL antigen at 50 μL/well and incubated in a refrigerator at 4° C. overnight. The next day, the coated antigen plate was washed once (washing solution: 1×PBST). After washing, the plate was blocked with 1% BSA blocking solution prepared in 1×PBST at 37° C. for 1 h. After washing the plate 3 times with 1×PBST, 50 μL of antibody diluted in a 1:10 ratio from 100 nM was added, and the plate was incubated in an incubator at 37° C. for 1 h. After washing the plate 3 times with 1×PBST, 100 μL of goat anti-mouse secondary antibody diluted in a 1:5000 ratio was added, and the plate was incubated in an incubator at 37° C. for 0.5 h. After washing the plate, TMB color development solutions A and B were mixed in a 1:1 ratio for color development. 15 min later, the color development reaction was stopped with 1 N hydrochloric acid. […] value was read at 450 nm on a Spectra Max M5 microplate reader.

[3] = target: T2, CD79B protein on the surface of DoHH2 cells; assay: FACS of anti-human CD79B hybridoma positive clones; format: binding
Description: 4) FACS screening The suspension of DoHH2 cells was centrifuged, resuspended in PBS containing 0.1% BSA, and counted. The test serum was added, and the cells were incubated at room temperature for 60 min and washed. Then Anti-Mouse IgG (Fc specific)-FITC secondary antibody was added, and the cells were incubated at room temperature for 30 min away from the light, washed three times, gently resuspended in PBS containing 0.1% BSA, and loaded on the machine for assay.
(§9) 5) Identification of hybridoma positive clones A plurality of specific antibodies against human CD79B antigen were obtained; and 17 strains of hybridomas having strongest binding force to ELISA and FACS in assays were taken for production and purification of antibodies. Specific antibodies against monkey CD79B antigen were also obtained; and 4 strains of hybridomas having strongest binding force to ELISA and FACS in assays were taken for production and purification of antibodies. Assay results of anti-monkey CD79B hybridoma positive clone cells by FACS are shown in Table 4. mIgG was used as negative control in the both assays.

[4] = target: T2, CD79B protein on the surface of DoHH2 cells; assay: FACS of purified anti-human CD79B mouse monoclonal antibodies on DoHH2 cells; format: binding
Description: 3) Assay on anti-human CD79B mouse monoclonal antibodies by FACS The cell suspension of DoHH2 cells was centrifuged, resuspended in PBS containing 0.1% BSA, and counted. 100 μL of antibody diluted in a 1:10 ratio from 100 nM was added, and the cells were incubated at room temperature for 1 h and washed three times. Then Anti-Mouse IgG (Fc specific)-FITC secondary antibody was added, and the cells were incubated at room temperature for 30 min away from the light, washed three times, gently resuspended in PBS containing 0.1% BSA, and loaded on the machine for assay. […] The specific data are shown in FIGS. 9A and 9B, in which hIgG1 is a negative control antibody and SN8 is a positive control antibody. SN8 is an antibody (reference sequence source: US20170362318A) used in the antibody-drug conjugate polatuzumab vedotin developed by Roche pharmaceutical. Polatuzumab vedotin has been approved by the FDA for marketing.

human CD79B [5] = target: T1, human CD79B; assay: ELISA of anti-human CD79B hybridoma positive clones; format: binding; design: the extracellular region (ECD) of human CD79B comprises 159 amino acids (Met1-Asp159); made in house; host or cells: 293F cells; conditions: hybridoma cell supernatant, read at 450 nm
Description: as §8, with “3)” for “2) Assay on anti-human CD79B mouse monoclonal antibodies by”, “ELISA screening” for “ELISA”, “the test cell supernatant” for “antibody diluted in a 1:10 ratio from 100 nM”
as §9

| Molecule | Maximum inhibition (%) (A549) | IC50 (A549) [nM] | IC50 (SKBR3) [nM] | Maximum inhibition (%) (SKBR3) | IC50 (MDA-MB-468) [nM] | Maximum inhibition (%) (MDA-MB-468) | endocytosis by DOHH-2 cells at 4° C. ([1]; 20 μg/mL antibody, incubation at 4° C.) | endocytosis by DOHH-2 cells at 37° C. after 1 h ([1]; 20 μg/mL antibody, incubation at 37° C., 1 h) | endocytosis, overall judgement ([1]; DOHH-2 cells) | time at which antibody endocytosis reaches a maximum ([1]; incubation at 37° C.) [h] | ELISA binding force (human CD79B [2]) | Mean fluorescence value [3] | FACS binding force ([4]; antibodies diluted 1:10 from 100 nM, FIGS. 9A, 9B) | FACS binding force compared with SN8 ([4]; positive control antibody SN8) | Results (OD450) (human CD79B [5]) |
| --- | --- | --- | --- | --- | --- | --- | --- | --- | --- | --- | --- | --- | --- | --- | --- |
| C=C1C[C@@H]2CC[C@@]34C[C@H]5O[C@H]6[C@@H](O3)[C@H]3O[C@H](CC[C@@H]3O[C@H]6[C@H]5O4)CC(=O)C[C@@H]3[C@@H](OC)[C@@H](C[C@@H](CNC)OC)O[C@H]3C[C@H]3O[C@@H](CC[C@@H]1O2)C[C@@H](C)C3=C [D-2] | 62.09 | 3.08 | 1.09 | 96.85 | 1.88 | 89.43 |  |  |  |  |  |  |  |  |  |
| C=C1C[C@@H]2CC[C@@]34C[C@H]5O[C@H]6[C@@H](O3)[C@H]3O[C@H](CC[C@@H]3O[C@H]6[C@H]5O4)CC(=O)C[C@@H]3[C@@H](OC)[C@@H](C[C@H](O)CNC)O[C@H]3C[C@H]3O[C@@H](CC[C@@H]1O2)C[C@@H](C)C3=C [E-305] | 61.27 | 2.1 | 0.571 | 96.42 | 1.17 | 88.53 |  |  |  |  |  |  |  |  |  |
| C=C1C[C@@H]2CC[C@@]34C[C@H]5O[C@H]6[C@@H](O3)[C@H]3O[C@H](CC[C@@H]3O[C@H]6[C@H]5O4)CC(=O)C[C@@H]3[C@@H](OC)[C@@H](C[C@H](O)CO)O[C@H]3C[C@H]3O[C@@H](CC[C@@H]1O2)C[C@@H](C)C3=C [E1-30] | 62.46 | 0.781 | 0.166 | 96.15 | 0.36 | 90.49 |  |  |  |  |  |  |  |  |  |
| SN8 [reference compound] |  |  |  |  |  |  | cannot be endocytosed by DOHH-2 cells | most of the antibodies are already endocytosed by DOHH-2 cells | good endocytosis | 4 |  |  |  |  |  |
| mAb015: anti-human CD79B mouse monoclonal antibody, clone 83B2G2; VH SEQ ID NO: 3, VL SEQ ID NO: 4 (antibody, listed as Mus musculus, V domains shown) VH: QVQLQQSGAELARPGASVKLSCKASGSSFTSYGINWVKQRTGQGLEWIGEIFPRSGNTYYNEKFEGKATLTADKSSSTAYMELRSLTSEDSAVYFCAKGDLGDFDYWGQGTTLTVSS VL: DFLMTQTPLSLPVRLGDQASISCRSSQSIVHSDGNTYFEWYLQKPGQSPKLLIYKVSNRFSGVPDRFSGSGSGTDFTLKISRVEAEDLGVYYCFQGSHVPWTFGGGTKLEIK |  |  |  |  |  |  |  |  |  |  | strongest ELISA binding force | 10036 | strongest FACS binding force | superior binding force to SN8 | 3.41 |
